Where two headings read alike, the source gives them in different places.
How the values were obtained:
Human STING = Human STING (Homo sapiens, UniProt Q86WV6, G230A/H232R/R293Q/R71H); test: Reporter gene assay, human STING agonist activity, THP1-Dual cells (HAQ-mutated), IRF pathway; settings: 24 hours, 100% = maximum count with ML-RR-CDA·2Na+
Procedure: Human STING agonist activity was evaluated by using THP1-Dual™ cells (HAQ-mutated) (InvivoGen, CA, US), with which the activation of the pathway of interferon regulatory factor-3 (IRF3), which is present in the downstream of the STING pathway, can be confirmed.
Assay was performed as follows. First, a test compound diluted with PBS was aliquoted into a transparent 96-well plate (Corning Incorporated, NY, US) at 20 μL/well. Subsequently, reporter cells suspended in assay buffer (an RPMI1640 medium or DMEM medium containing 10% bovine serum albumin) were added at 180 μL/well (1×10^5 cells/well) to initiate stimulation. After the cells were cultured in an environment at 37° C. and 5% CO2 for 24 hours, the resultant was centrifuged to collect the supernatant. To a white 384-well plate, 6 μL of the supernatant collected was added, and 15 μL of QUANTI-Luc (InvivoGen) solution was added thereto. After the resultant was well mixed together, emission was measured by using a plate reader (PerkinElmer, Inc., MA, US).

[1] = target: T1, HisAviTEV-hSTING (139-342) human wild-type protein (Homo sapiens, UniProt Q86WV6, H232R); test: Protein thermal shift assay, STING C-terminal binding domain protein; settings: test compound final concentration 0.5 mM
T1 construct: made in house; host or cells: E. coli Rosetta 2 (DE3), co-expressed with BirA (1-321)

[2] = THP1-Dual cells IRF EC50, THP1-Dual cells (HAQ-mutated)
[3] = read-out: THP1-Dual cells IRF EC50, THP1-Dual cells (HAQ-mutated)

Human STING, sequence (Q86WV6 whole entry R71H/G230A/H232R/R293Q, the tested form may be a part): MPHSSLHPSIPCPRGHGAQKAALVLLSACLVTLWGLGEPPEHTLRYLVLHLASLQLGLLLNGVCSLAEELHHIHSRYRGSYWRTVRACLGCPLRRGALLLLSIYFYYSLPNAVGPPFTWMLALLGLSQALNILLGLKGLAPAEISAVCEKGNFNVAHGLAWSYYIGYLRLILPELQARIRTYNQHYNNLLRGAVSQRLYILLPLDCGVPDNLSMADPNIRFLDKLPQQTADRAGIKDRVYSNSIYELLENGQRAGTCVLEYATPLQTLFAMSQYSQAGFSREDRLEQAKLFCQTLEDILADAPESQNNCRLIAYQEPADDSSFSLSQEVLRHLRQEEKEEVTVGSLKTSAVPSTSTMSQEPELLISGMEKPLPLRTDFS
T1 sequence (Q86WV6 with tags, fused parts or gaps H232R): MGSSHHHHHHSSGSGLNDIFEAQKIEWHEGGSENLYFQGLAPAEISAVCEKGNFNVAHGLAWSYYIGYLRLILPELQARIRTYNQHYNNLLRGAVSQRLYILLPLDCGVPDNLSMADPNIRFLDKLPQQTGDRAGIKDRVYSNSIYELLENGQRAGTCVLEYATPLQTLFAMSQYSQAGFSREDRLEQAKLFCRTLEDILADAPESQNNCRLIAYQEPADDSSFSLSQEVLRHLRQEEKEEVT

An EC50 (Human STING; [2]) of 300 nM was found for `Nc1ncnc2c1ncn2[C@@H]1O[C@@H]2COP(=O)(S)O[C@H]3[C@@H](O)[C@H](n4cc5c6c(ncnc64)NCCC5)O[C@@H]3COP(=O)(S)O[C@@H]1[C@@H]2O` (single isomer, unassigned) [1b] in this work.
An EC50 (Human STING; [2]) of 4700 nM was found for `Nc1ncnc2c1ncn2[C@@H]1O[C@@H]2COP(=O)(S)O[C@H]3[C@@H](O)[C@H](n4cc5c6c(ncnc64)NCCC5)O[C@@H]3COP(=O)(S)O[C@@H]1[C@@H]2O` (single isomer, unassigned) [2a] in this work.
An EC50 (Human STING; [2]) of 2400 nM was found for `NCCn1cnc2c(ncn2[C@@H]2O[C@@H]3COP(=O)(S)O[C@H]4[C@@H](O)[C@H](n5cc6c7c(ncnc75)NCCC6)O[C@@H]4COP(=O)(S)O[C@@H]2[C@@H]3O)c1=O` (single isomer, unassigned) [5a] in this work.
An EC50 (Human STING; [2]) of 2100 nM was found for `O=c1c2ncn([C@@H]3O[C@@H]4COP(=O)(S)O[C@H]5[C@@H](O)[C@H](n6cc7c8c(ncnc86)NCCC7)O[C@@H]5COP(=O)(S)O[C@@H]3[C@@H]4O)c2ncn1CCO` (single isomer, unassigned) [6b] in this work.
An EC50 (Human STING; [2]) of 5700 nM was found for `Nc1nc(NCCO)nc2c1ncn2[C@@H]1O[C@@H]2COP(=O)(S)O[C@H]3[C@@H](O)[C@H](n4cc5c6c(ncnc64)NCCC5)O[C@@H]3COP(=O)(S)O[C@@H]1[C@@H]2O` (single isomer, unassigned) [9a] in this work.
An EC50 (Human STING; [2]) of 6300 nM was found for `CC(C)(N)CNc1nc(N)c2ncn([C@@H]3O[C@@H]4COP(=O)(S)O[C@H]5[C@@H](O)[C@H](n6cc7c8c(ncnc86)NCCC7)O[C@@H]5COP(=O)(S)O[C@@H]3[C@@H]4O)c2n1` (single isomer, unassigned) [10a] in this work.
An EC50 (Human STING; [2]) of 4000 nM was found for `NCc1nc(N)c2ncn([C@@H]3O[C@@H]4COP(=O)(S)O[C@H]5[C@@H](O)[C@H](n6cc7c8c(ncnc86)NCCC7)O[C@@H]5COP(=O)(S)O[C@@H]3[C@@H]4O)c2n1` (single isomer, unassigned) [11a] in this work.
An EC50 (Human STING; [2]) of 1800 nM was found for `Nc1nc(CO)nc2c1ncn2[C@@H]1O[C@@H]2COP(=O)(S)O[C@H]3[C@@H](O)[C@H](n4cc5c6c(ncnc64)NCCC5)O[C@@H]3COP(=O)(S)O[C@@H]1[C@@H]2O` (single isomer, unassigned) [12b] in this work.
An EC50 (Human STING; [2]) of 400 nM was found for `Nc1ncnc2c1ncn2[C@@H]1O[C@@H]2COP(=O)(S)O[C@H]3[C@@H](O)[C@H](n4cc5c6c(ncnc64)OCCC5)O[C@@H]3COP(=O)(S)O[C@@H]1[C@@H]2O` (single isomer, unassigned) [20b] in this work.
An EC50 (Human STING; [2]) of 700 nM was found for `Nc1ncnc2c1ncn2[C@@H]1O[C@@H]2COP(=O)(S)O[C@H]3[C@@H](O)[C@H](n4cc5c6c(ncnc64)OCCC5)O[C@@H]3COP(=O)(S)O[C@@H]1[C@@H]2O` (single isomer, unassigned) [21b] in this work.
An EC50 (Human STING; [2]) of 4300 nM was found for `C[C@H]1CCc2cn([C@@H]3O[C@@H]4COP(=O)(S)O[C@@H]5[C@H](O)[C@@H](COP(=O)(S)O[C@H]4[C@H]3O)O[C@H]5n3cnc4c(N)ncnc43)c3ncnc(c23)O1` (single isomer, unassigned) [22b] in this work.
An EC50 (Human STING; [2]) of 55 nM was found for `Nc1ncnc2c1ncn2[C@@H]1O[C@@H]2COP(=O)(S)O[C@H]3[C@@H](O)[C@H](n4cc5c6c(ncnc64)SCCC5)O[C@@H]3COP(=O)(S)O[C@@H]1[C@@H]2O` (single isomer, unassigned) [23b] in this work.
An EC50 (Human STING; [2]) of 1400 nM was found for `O=c1c2ncn([C@@H]3O[C@@H]4COP(=O)(S)O[C@H]5[C@@H](O)[C@H](n6cc7c8c(ncnc86)NCCC7)O[C@@H]5COP(=O)(S)O[C@@H]3[C@@H]4O)c2ncn1CCCO` (single isomer, unassigned) [26a] in this work.
An EC50 (Human STING; [2]) of 1200 nM was found for `O=c1c2ncn([C@@H]3O[C@@H]4COP(=O)(S)O[C@H]5C[C@H](n6cc7c8c(ncnc86)NCCC7)O[C@@H]5COP(=O)(S)O[C@@H]3[C@@H]4O)c2ncn1CCO` (single isomer, unassigned) [32a] in this work.
An EC50 (Human STING; [2]) of 6400 nM was found for `O=c1c2ncn([C@@H]3O[C@@H]4COP(=O)(S)O[C@H]5C[C@H](n6cc7c8c(ncnc86)NCCC7)O[C@@H]5COP(=O)(S)O[C@@H]3[C@@H]4O)c2ncn1CCO` (single isomer, unassigned) [32b] in this work.
An EC50 (Human STING; [2]) of 180 nM was found for `O=c1c2ncn([C@@H]3O[C@@H]4COP(=O)(S)O[C@H]5[C@H](F)[C@H](n6cc7c8c(ncnc86)NCCC7)O[C@@H]5COP(=O)(S)O[C@@H]3[C@@H]4O)c2ncn1CCO` (single isomer, unassigned) [33a] in this work.
An EC50 (Human STING; [2]) of 550 nM was found for `O=c1c2ncn([C@@H]3O[C@@H]4COP(=O)(S)O[C@H]5[C@@H](F)[C@H](n6cc7c8c(ncnc86)NCCC7)O[C@@H]5COP(=O)(S)O[C@@H]3[C@@H]4O)c2ncn1CCO` (single isomer, unassigned) [34b] in this work.
An EC50 (Human STING; [2]) of 450 nM was found for `O=c1c2ncn([C@@H]3O[C@@H]4COP(=O)(S)O[C@H]5[C@@H](O)[C@H](n6cc7c8c(ncnc86)NCCC7)O[C@@H]5COP(=O)(S)O[C@@H]3C4)c2ncn1CCO` (single isomer, unassigned) [38a] in this work.
An EC50 (Human STING; [2]) of 1600 nM was found for `O=c1c2ncn([C@@H]3O[C@@H]4COP(=O)(S)O[C@H]5[C@@H](O)[C@H](n6cc7c8c(ncnc86)NCCC7)O[C@@H]5COP(=O)(S)O[C@@H]3C4)c2ncn1CCO` (single isomer, unassigned) [38b] in this work.
An EC50 (Human STING; [2]) of 410 nM was found for `O=c1c2ncn([C@@H]3O[C@@H]4COP(=O)(S)O[C@H]5[C@@H](O)[C@H](n6cc7c8c(ncnc86)NCCC7)O[C@@H]5COP(=O)(S)O[C@@H]3[C@@H]4F)c2ncn1CCO` (single isomer, unassigned) [39b] in this work.
An EC50 (Human STING; [2]) of 3400 nM was found for `NCCn1cnc2c(ncn2[C@@H]2O[C@@H]3COP(=O)(S)O[C@H]4[C@@H](O)[C@H](n5cc6c7c(ncnc75)NCCC6)O[C@@H]4COP(=O)(S)O[C@@H]2[C@@H]3F)c1=O` (single isomer, unassigned) [40a] in this work.
An EC50 (Human STING; [2]) of 3200 nM was found for `NCCn1cnc2c(ncn2[C@@H]2O[C@@H]3COP(=O)(S)O[C@H]4[C@@H](O)[C@H](n5cc6c7c(ncnc75)NCCC6)O[C@@H]4COP(=O)(S)O[C@@H]2[C@@H]3F)c1=O` (single isomer, unassigned) [40b] in this work.
An EC50 (Human STING; [2]) of 1100 nM was found for `O=C(CO)NCCn1cnc2c(ncn2[C@@H]2O[C@@H]3COP(=O)(S)O[C@H]4[C@@H](O)[C@H](n5cc6c7c(ncnc75)NCCC6)O[C@@H]4COP(=O)(S)O[C@@H]2[C@@H]3F)c1=O` (single isomer, unassigned) [41a] in this work.
An EC50 (Human STING; [2]) of 3600 nM was found for `O=C(CO)NCCn1cnc2c(ncn2[C@@H]2O[C@@H]3COP(=O)(S)O[C@H]4[C@@H](O)[C@H](n5cc6c7c(ncnc75)NCCC6)O[C@@H]4COP(=O)(S)O[C@@H]2[C@@H]3F)c1=O` (single isomer, unassigned) [41b] in this work.
An EC50 (Human STING; [2]) of 350 nM was found for `O=c1c2ncn([C@@H]3O[C@@H]4COP(=O)(S)O[C@H]5[C@@H](F)[C@H](n6cc7c8c(ncnc86)NCCC7)O[C@@H]5COP(=O)(S)O[C@@H]3[C@@H]4F)c2ncn1CCO` (single isomer, unassigned) [44b] in this work.
An EC50 (Human STING; [3]) of 3900 nM was found for `Nc1ncnc2c1ncn2[C@@H]1O[C@@H]2COP(=O)(S)O[C@@H]3[C@@H](COP(=O)(S)O[C@@H]1[C@@H]2O)C[C@@H](n1cc2c4c(ncnc41)NCCC2)[C@@H]3O` (single isomer, unassigned) [46a] in this work.
An EC50 (Human STING; [3]) of 870 nM was found for `Nc1ncnc2c1ncn2[C@@H]1O[C@@H]2COP(=O)(S)O[C@@H]3[C@@H](COP(=O)(S)O[C@@H]1[C@@H]2O)C[C@@H](n1cc2c4c(ncnc41)NCCC2)[C@@H]3O` (single isomer, unassigned) [46b] in this work.
An EC50 (Human STING; [2]) of 39 nM was found for `O=c1c2ncn([C@@H]3O[C@@H]4COP(=O)(S)O[C@H]5[C@@H](F)[C@H](n6cc7c8c(ncnc86)SCCC7)O[C@@H]5COP(=O)(S)O[C@@H]3[C@@H]4O)c2ncn1CCO` (single isomer, unassigned) [48b] in this work.
An EC50 (Human STING; [2]) of 330 nM was found for `NCCn1cnc2c(ncn2[C@@H]2O[C@@H]3COP(=O)(S)O[C@H]4[C@@H](F)[C@H](n5cc6c7c(ncnc75)SCCC6)O[C@@H]4COP(=O)(S)O[C@@H]2[C@@H]3O)c1=O` (single isomer, unassigned) [49a] in this work.
For `O=C(CO)NCCn1cnc2c(ncn2[C@@H]2O[C@@H]3COP(=O)(S)O[C@H]4[C@@H](F)[C@H](n5cc6c7c(ncnc75)SCCC6)O[C@@H]4COP(=O)(S)O[C@@H]2[C@@H]3O)c1=O` (single isomer, unassigned) [50b], the “ΔTm Hu-WT” value [1] was 12.3 °C and the EC50 (Human STING; [2]) was 200 nM.
An EC50 (Human STING; [2]) of 320 nM was found for `NCCNc1nc(N)c2ncn([C@@H]3O[C@@H]4COP(=O)(S)O[C@H]5[C@@H](F)[C@H](n6cc7c8c(ncnc86)SCCC7)O[C@@H]5COP(=O)(S)O[C@@H]3[C@@H]4F)c2n1` (single isomer, unassigned) [51a] in this work.
An EC50 (Human STING; [2]) of 460 nM was found for `O=c1c2ncn([C@@H]3O[C@@H]4COP(=O)(O)O[C@H]5[C@@H](F)[C@H](n6cc7c8c(ncnc86)NCCC7)O[C@@H]5COP(=O)(S)O[C@@H]3[C@@H]4O)c2ncn1CCO` (single isomer, unassigned) [52b] in this work.
An EC50 (Human STING; [2]) of 580 nM was found for `Nc1ncnc2c1ncn2[C@@H]1O[C@@H]2COP(=O)(S)O[C@H]3[C@@H](O)[C@H](n4cc5c6c(ncnc64)NCCC5)O[C@@H]3COP(=O)(S)O[C@@H]1[C@@H]2O` (stereo partly drawn) [47a, Disodium (2S,5R,7R,8R,12aR,14R,15R,15aS,16R)-7-(6-amino-9H-purin-9-yl)-15,16-dihydroxy-2-oxo-10-sulfanylidene-14-(6,7,8,9-tetrahydro-2H-2,3,5,6-tetraazabenzo[cd]azulen-2-yl)octahydro-2H,10H,12H-5,8-methano-2λ^5,10λ^5-furo[3,2-1][1,3,6,9,11,2,10]pentaoxadiphosphacyclotetradecine-2,10-bis(thiolate)] in this work.

Reference: patent US12370263B2, “Cyclic dinucleotide derivative based antibody-drug conjugates” (DAIICHI SANKYO COMPANY, LIMITED, priority 2018, dated 2025)
